Measurements from article PMC7356761 (Molecules, 2020).

Key:
[1] = biological target: EGFR-TK with L858R/T790M mutation (Homo sapiens, UniProt P00533, L858R/T790M); experiment: EGFR-TK inhibition assay (ADP-Glo), L858R/T790M; type: biochemical
[2] = tested on: H3255 cells (EGFR L858R); experiment: Cell viability assay (WST-8), H3255; type: cell-based; conditions: Homo sapiens, NCI-H3255, WST-8, 48 h
[3] = biological target: wild-type EGFR-TK (Homo sapiens, UniProt P00533); experiment: EGFR-TK inhibition assay (ADP-Glo), wild-type; type: biochemical; conditions: EGFR tyrosine kinase wild-type; read-out: IC50 Value, Wild-Type (WT)
[4] = tested on: H441 cells (wild-type EGFR); experiment: Cell viability assay (WST-8), H441; conditions: WST-8, 48 h
[5] = tested on: H1975 cells (EGFR L858R/T790M); set-up: method as in PMID 27827863; conditions: previous study ref 25; cited from earlier work

Row | Structure (SMILES) | IC50 ([1]; EGFR tyrosine kinase L858R/T790M) | SI (WT: L858R/T790M) ([1]; selectivity index, wild-type IC50 to L858R/T790M IC50) | IC50 [2] | IC50 [3] | IC50 [4] | IC50 [5]
1 | C=CC(=O)Nc1cc(I)cc(Nc2nc(Nc3ccc(N4CCN(C(C)=O)CC4)cc3OC)ncc2C(F)(F)F)c1 [compound 10, N-(3-{[2-({4-[4-acetylpiperazin-1-yl]-2-methoxyphenyl}amino)-5-(trifluoromethyl)pyrimidin-4-yl]amino}-5-iodophenyl)acrylamide] | 310 ± 150 nM | >32 | 500 ± 210 nM | > 10000 nM | 1840 ± 440 nM | 
2 | C=CC(=O)Nc1cccc(Nc2nc(Nc3ccc(N4CCN(C(C)=O)CC4)cc3OC)ncc2C(F)(F)F)c1 [CO-1686, Rociletinib, reference compound] |  |  | 150 ± 20 nM |  | 260 ± 40 nM | 137 nM
